In US20140271756A1, “Controlled Release of Microbiocides” (priority 2013, published 2014):

Test: benzyltriazole release flux rate test of membrane in 20 gallons tap water
Assay type: physicochemical
Conditions: 80° F., 100 hour period
Method: The microbiocide component release flux rate through the membrane is defined as milligrams of microbiocide component released per hour through one square millimeter of membrane or mg./hr./mm^2. Because the release flux rate varies over a wide range and is at least sometimes relatively slow, a test using benzyltriazole has been developed to quantify certain release flux rates that may be useful in accordance with the present invention. This test is conducted as follows.
A tank with twenty (20) gallons of tap water is provided, together with a recirculating heater to give mixing and temperature control. […] Water samples are collected at regular intervals over a 100 hour period and are measured for benzyltriazole content. From these measurements, the benzyltriazole release flux rate of the membrane is determined. To illustrate, suppose 300 mg of benzyltriazole is released through 351 mm^2 of membrane area (exposed through an opening in the outermost wall of the container) in 100 hours. The benzyltriazole release flux rate

benzyltriazole release flux rate (membrane 27 of container 10, cellulose nitrate, average pore size about 20 to about 25 microns): about 0.049 mg/hr/min^2 | benzyltriazole release flux rate (membrane layers 127 of container 110, cellulose nitrate, pore size about 8 microns): about 0.025 mg/hr./mm^2
Substance: benzyltriazole
